Measurements: patent publication US20220409570A1, “COMPOSITION OF N-PALMITOYL-ETHANOLAMIDE AND BAICALEIN IN CO-MICRONIZED FORM” (EPITECH GROUP S.P.A., priority 2021, published 2022)

Key:
Type in all cases: in vivo, Male Sprangue Dawley rats
DHT = assay: Serum DHT levels (ELISA) in rats with testosterone propionate-induced BPH; conditions: per os daily for 14 days, co-micronized PEA-Baicalein 10 mg/kg (9:1), um-PEA 9 mg/kg, Baicalein 1 mg/kg, vs BPH+vehicle, FIG. 2A
Source text: (§1) Male Sprangue Dawley rats (200-250 gr, Envigo, Italy) fed ad libitum and housed in cages with controlled sleep/wake cycle were used for the in vivo experimentation. Before the start of the experimentation, the animals were subjected to an acclimatization period of one week considering all the experimental procedures and protocols, compliant with the principles of care and welfare of laboratory animals approved by the Italian Ministry of Health and European directives (Italian Legislative Decree 2014/26 and EU Directive 2010/63) and by the OPBA of the University of Messina. […]
(§2) The animals were euthanized 14 days after the start of the experimentation. […] Specifically, the DHT levels were analyzed in the plasma samples with the commercially available Enzyme-linked Immunosorbent Assay (ELISA) (My BioSource). The samples were dosed with the microplate reader and the absorbance was read spectrophotometrically at 450 nm. […] The protein expression was quantified by densitometry (BIORAD ChemiDoc™ XRS+software) and normalized to the housekeeping gene β-actin.

5α-red 2 = assay: Western blot of 5α-red 2 in prostate tissue of BPH rats; conditions: per os daily for 14 days, co-micronized PEA-Baicalein 10 mg/kg, um-PEA 9 mg/kg, Baicalein 1 mg/kg, normalized to β-actin, FIG. 2B
Source text: as §1, §2

AR = assay: Western blot of AR in prostate tissue of BPH rats; conditions: per os daily for 14 days, co-micronized PEA-Baicalein 10 mg/kg, um-PEA 9 mg/kg, Baicalein 1 mg/kg, vs BPH+vehicle, FIG. 2C
Source text: as §1, §2

PSA = assay: Western blot of PSA in prostate tissue of BPH rats; conditions: per os daily for 14 days, co-micronized PEA-Baicalein 10 mg/kg, um-PEA 9 mg/kg, Baicalein 1 mg/kg, vs BPH+vehicle, FIG. 2D
Source text: as §1, §2

Bcl-2 = assay: Western blot of anti-apoptotic factor Bcl-2 in prostate tissue of BPH rats; conditions: per os daily for 14 days, co-micronized PEA-Baicalein 10 mg/kg, um-PEA 9 mg/kg, Baicalein 1 mg/kg, vs BPH+vehicle, FIG. 3B
Source text: as §1, §2

Bax = assay: Western blot of pro-apoptotic factor Bax in prostate tissue of BPH rats; conditions: per os daily for 14 days, co-micronized PEA-Baicalein 10 mg/kg, um-PEA 9 mg/kg, Baicalein 1 mg/kg, vs BPH+vehicle, FIG. 3C
Source text: as §1, §2

[1] = test system: testosterone propionate-induced BPH (Benign Prostatic Hyperplasia); assay: Weight of the prostate in BPH rats; conditions: per os daily for 14 days, co-micronized PEA-Baicalein 10 mg/kg, um-PEA 9 mg/kg, FIG. 3A
Source text: as §1, §2

SMILES | Serum levels of DHT (DHT) | Expression of the 5α-red 2 protein in prostate tissue (WB densitometry) (5α-red 2) | Expression (tissue levels) of AR (WB densitometry) (AR) | Expression (tissue levels) of PSA (WB densitometry) (PSA) | Levels of the anti-apoptotic factor Bcl-2 (WB densitometry) (Bcl-2) | Expression of the pro-apoptotic factor Bax (WB densitometry) (Bax) | Weight of the prostate [1]
O=c1cc(-c2ccccc2)oc2cc(O)c(O)c(O)c12 [Baicalein, 5,6,7-trihydroxyflavone] | markedly elevated | not capable of reducing the expression of such an enzyme | did not bring significant changes | did not bring significant changes | did not show a statistically significant change | did not show a statistically significant change | 
CCCCCCCCCCCCCCCC(=O)NCCO [um-PEA, Palmitoylethanolamide] | more than the um-PEA (9 mg/kg), significantly reduces serum DHT | more than the um-PEA alone at 9 mg/kg, significantly reduces the expression of the enzyme 5α-red 2 |  | significantly greater and clearer effect, with respect to um-PEA alone | decidedly minor effect and with lower statistical significance | decidedly minor effect and with lower statistical significance | progressive decrease in prostate weight
